Data as given in article PMC11955804, “Histidine-rich enantiomeric peptide coacervates enhance antigen sequestration and presentation to T cells” (Chemical Science, 2025).

Columns and labels:
Type in all cases: physicochemical
[1] = Rheology testing of coacervate suspensions
Protocol: NaCl) was used to study ionic strength effects. The absorbance was further converted to turbidity using methods previously described 1 and data was plotted as relative turbidity.
Optical microscopy and dynamic light scattering (DLS)
Droplets were visualized in 1×PBS using NCI Leica DMC4500 microscope in reflection mode with differential interference contrast. Images were captured with a DMC4500 camera under the control of Leica LAS X software (version 3.4.2). Coacervate size was measured using 1 mM peptide solutions (1×PBS, pH 7.4) on a ZEN 3600 Zetasizer (Malvern Instruments, UK) using DLS-Zen 0040 specialized cuvettes. The results were reported as the means of three measurements, with 14 scans for each measurement.
Transmission electron microscopy (TEM)
Peptide solutions prepared for TEM were applied directly to 200-mesh, carbon-coated copper grids for 2 min and stained with 1% uranyl formate for 1 min. Excess stain was blotted using filter paper. Brightfield images were taken with a JEOL JEM-1400 transmission electron microscope with a NANOSPRT15 camera at an accelerating voltage of 120 kV.
Viscosity of the peptide solutions (1 mM or 2 mM) was tested using an ARES 2000ex rotational rheometer (TA Instruments, New Castle, DE). Peptides were freshly solubilized, and 170 µL of each was pipetted onto the rheometer stage. A 20-mm parallel plate geometry was lowered to a gap of 200 µm. Storage modulus (G′) and loss modulus (G″) were measured as a function of angular frequency (1–10 rad/s) with 1% strain. Viscosity was measured as a function […]
of shear rate (1–100 s-1). Separately, viscosity was measured using a Hagen-Poiseuille viscometer (RheoSense microVISC, San Ramon, CA) at a shear rate of 2500 s-1 to confirm viscosity differences at two different concentrations (1 mM and 2 mM).
Computational simulations
All simulations were performed using GROMACS 2023 2,3 and the CHARMM36m 4 force field. The necessary force field parameters and input files were generated using AlphaFold 5 predicted structures coupled with CHARMM-GUI 6. A single peptide chain was solvated in a 5-nm cubic box. […]

Turbidity assay of LLPS = conditions: 1× PBS pH 7.4, absorbance at 600 nm over 24 h, plate reader
From the text: (§1) Peptide synthesis and purification
The L- and D-enantiomers of (GHGLY)4, (GHGVY)4 and (GHGPY)4 peptides were purchased from GenScript and used without further modification. (GHGAY)4, (GHGFY)4, (GHGIY)4 and (GHGNY)4 were synthesized using standard Fmoc-SPPS chemistry on Rink Amide with Oxyma (Ethyl cyano(hydroxyimino) acetate) and N, N′-diisopropylcarbodiimide (DIC) as coupling agents on a Liberty Blue microwave-assisted synthesizer. Peptides were cleaved using a cocktail of trifluoroacetic acid (TFA), tri-isopropyl silane (TIS), and H2O (95:2.5:2.5) and extracted and washed in cold diethyl ether. The resulting pellet was dissolved in acetonitrile/water mixture (50:50) and frozen prior to lyophilization. Peptides were purified (~90%) using High Performance Liquid Chromatography (HPLC) on a Dionex Ultimate 3000 HPLC equipped with a diode-array detector on an Agilent Poroshell RP-C18 column (4.6 mm×150 mm), operating at a flow rate of 1 mL/min. […]
(§2) Peptide solutions (0.25–1.5 mM) were prepared in 1×PBS at pH 7.4. Aliquots (140 µL) were pipetted into a 96-well plate and absorbance at 600 nm was measured over 24 h using a Synergy HT plate reader (Biotek, USA) at RT or 37°C with or without agitation. The pH dependence of LLPS formation was assessed in 0.1 M potassium phosphate buffer (with 150 mM NaCl) at different pH values (5.8, 6.6, 7.4, 8.0) and 1 mM peptide concentration. […]
NaCl) was used to study ionic strength effects. The absorbance was further converted to turbidity using methods previously described 1 and data was plotted as relative turbidity. […]
Droplets were visualized in 1×PBS using NCI Leica DMC4500 microscope in reflection mode with differential interference contrast. […] Coacervate size was measured using 1 mM peptide solutions (1×PBS, pH 7.4) on a ZEN 3600 Zetasizer (Malvern Instruments, UK) using DLS-Zen 0040 specialized cuvettes. […]
Viscosity of the peptide solutions (1 mM or 2 mM) was tested using an ARES 2000ex rotational rheometer (TA Instruments, New Castle, DE). […] Viscosity was measured as a function

[2] = Critical concentration (Ccrit) of coacervate formation; conditions: 1× PBS, pH 7.4; enantiomeric variants identical
From the text: as §1
The L- and D-enantiomers of (GHGLY)4, (GHGVY)4 and (GHGPY)4 peptides were purchased from GenScript and used without further modification. (GHGAY)4, (GHGFY)4, (GHGIY)4 and (GHGNY)4 were synthesized using standard Fmoc-SPPS chemistry on Rink Amide with Oxyma (Ethyl cyano(hydroxyimino) acetate) and N, N′-diisopropylcarbodiimide (DIC) as coupling agents on a Liberty Blue microwave-assisted synthesizer. Peptides were cleaved using a cocktail of trifluoroacetic acid (TFA), tri-isopropyl silane (TIS), and H2O (95:2.5:2.5) and extracted and washed in cold diethyl ether. The resulting pellet was dissolved in acetonitrile/water mixture (50:50) and frozen prior to lyophilization. Peptides were purified (~90%) using High Performance Liquid Chromatography (HPLC) on a Dionex Ultimate 3000 HPLC equipped with a diode-array detector on an Agilent Poroshell RP-C18 column (4.6 mm×150 mm), operating at a flow rate of 1 mL/min. Peaks corresponding to 220 nm were collected for MALDI -TOF mass analysis (Shimadzu MALDI-8030) using α-cyno-4-hydroxycinnamic acid matrix (Bruker Daltonics, MA).
as §2, with “concentration. Similarly, 0.1 M potassium phosphate buffer (pH 7.4) with varying salt concent rations (0, 150, 250, 500, 1000 mM” for “concentration.”
Figure S10. Determination of Ccrit for (a) (GHGLY)4, (b) (GHGVY)4, (c) (GHGPY)4 and (d-f) their corresponding enantiomers (1 mM, 1× PBS, pH 7.4).
Table S1. Measured Ccrit values for (GHGXY)4 peptides used in this study.
(1 picture or pasted object on this page, not shown here)

[3] = angular frequency 1–10 rad/s, 1% strain

| fold increase in G′ compared to valine droplets [1, 3] | viscosity of coacervate suspension ([1]; parallel plate rheology at fixed shear rate, 1 or 2 mM peptide, compared to valine or proline variants) | turbidity over time (A600) (Turbidity assay of LLPS) | critical concentration (Ccrit) of coacervate formation [2] | fold increase in G′ compared to proline [1, 3] | Substance |
| --- | --- | --- | --- | --- | --- |
| ~3 fold | greater viscosity | formed a turbid solution instantaneously | 0.5 mM |  | (GHGLY)4 [GL 20] |
|  |  | steadily increased over 24 h | 0.75 mM | 2 fold | (GHGVY)4 [GV 20] |
